In assay [1] the target is T1, SRSF3 (Homo sapiens, UniProt P84103).
T1 sequence (P84103 1-164): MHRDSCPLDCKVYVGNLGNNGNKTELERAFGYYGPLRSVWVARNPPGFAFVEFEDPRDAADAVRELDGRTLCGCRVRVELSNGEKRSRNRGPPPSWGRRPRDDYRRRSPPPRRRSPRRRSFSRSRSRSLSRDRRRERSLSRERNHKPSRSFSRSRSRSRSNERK
The assay can be described thus: Western blot of SRSF3 protein in HCT-116 and SW480 cells. It is filed as cell-based. Further details: endogenous in cells; host or cells: HCT-116 and SW480. Particulars: HCT-116 and SW480; 20 μM SFI003 plus 3 μM MLN4924, 50 μM CHQ or 10 μM MG132 for 12 h. The method, then:
(§1) After cell lysates were prepared, protein concentrations were determined by a BCA assay (TaKaRa, Kusatsu, Japan). Equal amounts of protein were separated by SDS–PAGE and transferred to polyvinylidene difluoride membranes. After normalization, the blots were probed with appropriate antibodies, as described previously.

Assay [2] relates to HCT-116 xenografts. As to the kind of experiment: HCT-116 xenografts in SCID mice. It is filed as in vivo. Particulars: HCT-116 xenografts, 100 mg/kg orally, two weeks. The method, then:
To explore the effect of SFI003 on the growth of CRC, approximately 3 × 10^6 HCT-116 cells or 8 × 10^6 SW480 cells were collected and mixed with Matrigel (Corning, NY, USA) at a 1:1 ratio by volume and then injected into the lower back region of mice. When tumors were palpable, mice were randomly divided into four groups. One group received vehicle as a control, while the other three groups were orally administered SFI003 at a dosage of 100 or 200 mg/kg or capecitabine at a dosage of 100 mg/kg for two continuous weeks. The tumor sizes and mouse body weights were monitored every other day. At the end of the experiment, tumors and blood samples were collected for further studies. The tumor size was evaluated according to Eq.: tumor size (mm^3) = (length × width^2) × 0.5.

Assay [3] addresses T1, SRSF3. The assay can be described thus: Biological experimental assays of screened compounds against SRSF3. As to conditions: screening hit among 22 selected compounds.
The test system of assay [4] is ROS. The assay can be described thus: Detection of ROS (DCFH-DA) in HCT-116 and SW480 cells. It is filed as cell-based, Human. As to conditions: 20 μM SFI003 with 5 mM NAC or 100 μM Trolox, 72 h. The protocol: Following treatment with SFI003 or siRNA, the cells were washed with PBS and incubated with DCFH-DA for 20 min at 37 °C. After washing three times, the cells were collected and measured at 488 nm excitation and 525 nm emission by a microplate reader (Tecan, Switzerland) according to the manufacturer’s instructions (Beyotime, Shanghai, China). The protein concentrations were determined by using a BCA assay (TaKaRa, Kusatsu, Japan).

Assay [5] has as its system HCT-116 and SW480 cells. The assay can be described thus: WB of EMT and apoptosis markers with ROS scavengers. It is filed as cell-based, Human. As to conditions: 20 μM SFI003 with 5 mM NAC or 100 μM Trolox, 72 h. The protocol: as §1
In assay [6] the test system is HCT-116 cells. The assay can be described thus: MTT assay in HCT-116 cells. Particulars: Homo sapiens; HCT-116 cells, 72 h. The assay is classed as cell-based, Human. The method, then:
(§2) Human CRC cell lines were purchased from the American Type Culture Collection (VA, USA). HCT-116 cells were cultured in DMEM (HyClone, Utah, USA) containing 10% fetal bovine serum (FBS; Gibco, NY, USA). SW480 cells were cultured in RPMI 1640 medium (HyClone, Utah, USA) containing 10% FBS. All cells were cultured in an incubator (Thermo, CA, USA) at a constant temperature of 37 °C and 5% CO2. N-Acetylcysteine (NAC), Trolox, MLN4924, 5-Fu, and capecitabine were purchased from MedChemExpress LLC (Shanghai, China). MG132 was purchased from Santa Cruz Biotech (CA, USA). Chloroquine (CHQ) was purchased from Sigma (CA, USA). Rapamycin was purchased from Beyotime (Shanghai, China). Primary antibodies against SRSF3 and E-Cadherin were purchased from Abcam (Cambridge, UK). Primary antibodies against N-Cadherin, Caspase 3, DHCR24, CAT, Akt and phospho-Akt (Ser473) were purchased from Cell Signaling Technology (MA, USA). Primary antibodies against β-actin, mTOR, and phospho-mTOR ([…]) were purchased from Beyotime (Shanghai, China). Primary antibody against Vimentin was purchased from Proteintech (Wuhan, China). Primary antibody against Bcl-2 was purchased from Santa Cruz Biotech (CA, USA). Primary antibody against Flag was purchased from MBL Beijing Biotech (Beijing, China). CRC cells were transfected with 100 nM siRNA or treated with various doses of SFI003 for 24 h, 48 h, or 72 h before being subjected to MTT assay as described previously.
Background: Formazan colour is commonly taken as a measure of viable cells.

For assay [7], the system named is SW480 cells. The assay can be described thus: MTT assay in SW480 cells. It is filed as cell-based, Human. Particulars: Homo sapiens; SW480 cells, 72 h. The method, then: as §2

Where a SMILES comes first, the peptide text is derived from it. The star is where a group is joined. Cbz = O=C(OCc1ccccc1)*

In general, IC50 refers to the midpoint of a concentration-inhibition curve. A low value points to greater potency.

For the compound `CC(C)C[C@@H](C=O)NC(=O)[C@H](CC(C)C)NC(=O)[C@H](CC(C)C)NC(=O)OCc1ccccc1` [MG132] (Cbz-Leu-Leu-Leu-aldehyde), the “effect on SFI003-induced SRSF3 degradation” value in assay [1] was “rescued”. As for `CCCCCOC(=O)Nc1nc(=O)n([C@@H]2O[C@H](C)[C@@H](O)[C@H]2O)cc1F` [capecitabine, reference compound], in assay [2], the “number of tumors that disappeared” value is “one”. Regarding `C/C(=N\Nc1nc(-c2ccc(O)cc2)cs1)C1=CSCN1` [compound 6], in assay [3], the “inhibitory activity against SRSF3” value is “satisfactory inhibitory activity”. `CC(=O)N[C@@H](CS)C(=O)O` [NAC, N-Acetylcysteine]: in assay [4], the “effect on SFI003-induced ROS” value is “significantly reversed”. Further, the “effect on SFI003-induced apoptosis and migration disability” value in assay [5] is listed as “reversed”. With `CO[C@H]1C[C@@H]2CC[C@@H](C)[C@@](O)(O2)C(=O)C(=O)N2CCCC[C@H]2C(=O)O[C@H]([C@H](C)C[C@@H]2CC[C@@H](O)[C@H](OC)C2)CC(=O)[C@H](C)/C=C(\C)[C@@H](O)[C@@H](OC)C(=O)[C@H](C)C[C@H](C)/C=C/C=C/C=C/1C` [rapamycin, reference compound], the IC50 in assay [6] was determined as 33.2 µM; in assay [7], 16.8 µM.

As for `Cc1c(C)c2c(c(C)c1O)CCC(C)(C(=O)O)O2` (stereo not shown) [Trolox], the “effect on SFI003-induced ROS” value in assay [4] is “significantly reversed”. Moreover, the “effect on SFI003-induced apoptosis and migration disability” value in assay [5] is given as “reversed”.

In the case of `NS(=O)(=O)OC[C@@H]1C[C@@H](n2ccc3c(N[C@H]4CCc5ccccc54)ncnc32)C[C@@H]1O` [MLN4924], in assay [1], the “effect on SFI003-induced SRSF3 degradation” value is on record as “rescued”.

The values are drawn from paper PMC9061822, “A novel SRSF3 inhibitor, SFI003, exerts anticancer activity against colorectal cancer by modulating the SRSF3/DHCR24/ROS axis” (Cell Death Discovery, 2022).
